Data set [1] addresses Calcium-activated potassium channel subunit alpha-1 (Homo sapiens) (UniProt Q12791). Put plainly: Maxi-K opening activity on cloned human (hSlo) large- conductance (BK) Ca(2+)-activated K+ channel expressed in Xenopus laevis oocytes at concentration of 20 uM. It is filed as functional, cell-based. As to conditions: Oocyte.
Data set [2] can be described thus: pKa value was determined. It is filed as physicochemical.

Calcium-activated potassium channel subunit alpha-1 (Homo sapiens), sequence (Q12791 whole entry): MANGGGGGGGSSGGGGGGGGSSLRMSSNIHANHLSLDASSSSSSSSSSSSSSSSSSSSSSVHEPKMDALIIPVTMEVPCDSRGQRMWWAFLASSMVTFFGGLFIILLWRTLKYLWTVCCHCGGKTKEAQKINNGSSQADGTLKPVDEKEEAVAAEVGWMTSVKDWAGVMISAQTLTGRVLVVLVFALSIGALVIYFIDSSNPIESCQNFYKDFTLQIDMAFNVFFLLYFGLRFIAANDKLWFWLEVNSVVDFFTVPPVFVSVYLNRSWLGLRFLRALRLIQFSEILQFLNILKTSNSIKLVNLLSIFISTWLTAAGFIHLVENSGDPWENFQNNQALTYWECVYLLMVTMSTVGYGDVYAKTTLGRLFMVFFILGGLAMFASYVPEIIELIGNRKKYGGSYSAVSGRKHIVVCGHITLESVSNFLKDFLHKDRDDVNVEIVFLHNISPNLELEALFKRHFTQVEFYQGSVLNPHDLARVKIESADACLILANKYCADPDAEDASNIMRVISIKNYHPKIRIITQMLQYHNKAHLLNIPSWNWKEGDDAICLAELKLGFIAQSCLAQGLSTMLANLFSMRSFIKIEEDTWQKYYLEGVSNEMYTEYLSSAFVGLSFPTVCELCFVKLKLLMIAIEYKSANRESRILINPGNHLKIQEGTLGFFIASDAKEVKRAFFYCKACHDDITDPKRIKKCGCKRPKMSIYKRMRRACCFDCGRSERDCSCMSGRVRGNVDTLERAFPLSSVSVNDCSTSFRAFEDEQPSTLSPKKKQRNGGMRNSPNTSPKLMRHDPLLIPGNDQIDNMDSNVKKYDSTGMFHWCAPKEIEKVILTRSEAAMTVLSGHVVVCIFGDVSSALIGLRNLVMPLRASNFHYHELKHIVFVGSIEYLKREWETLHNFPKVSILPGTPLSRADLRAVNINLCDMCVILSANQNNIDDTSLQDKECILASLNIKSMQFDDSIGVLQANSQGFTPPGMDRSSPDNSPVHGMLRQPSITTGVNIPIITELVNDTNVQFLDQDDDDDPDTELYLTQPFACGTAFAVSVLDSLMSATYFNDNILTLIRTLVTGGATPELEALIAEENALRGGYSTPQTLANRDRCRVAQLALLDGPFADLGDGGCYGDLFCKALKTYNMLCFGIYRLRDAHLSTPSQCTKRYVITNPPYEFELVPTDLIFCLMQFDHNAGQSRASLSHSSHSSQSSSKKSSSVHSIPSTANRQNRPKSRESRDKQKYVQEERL

With `O=C(Nc1cc(Cl)ccc1O)Nc1cc(Cl)ccc1O`, the Control current in data set [1] was 150%. In data set [2], the pKa was found to be 8.9.

As for `Oc1ccc(F)cc1Cc1cc(F)ccc1O`, the Control current in data set [1] was determined as 83.2%. This compound also came in with a pKa in data set [2] of 9.7.

Consider `Oc1c(Cl)cc(Cl)cc1Sc1cc(Cl)cc(Cl)c1O` [BITHIONOL], for which the Control current in data set [1] is 199%. The pKa in data set [2] amounted to 6.3.

`CCCc1ccc(O)c(-c2cc(CCC)ccc2O)c1`: in data set [1], the Control current came out at 95.9%. In data set [2], the pKa was 9.3.

On to `Oc1ccc(F)cc1Sc1cc(F)ccc1O`, for which the Control current in data set [1] came to 98.8%. Further, the pKa in data set [2] was found to be 8.4.

Take `CN(C)Cc1cc(Cl)cc(Cc2cc(Cl)cc(CN(C)C)c2O)c1O`: the Control current in data set [1] stood at 94.7%. The compound further showed a pKa in data set [2] of 9.6.

Consider `Oc1c(Br)cc(Br)cc1-c1cc(Br)cc(Br)c1O` [BROMOPHENE], for which the Control current in data set [1] worked out at 264%. In data set [2], this compound had a pKa of 6.7.

Regarding `Oc1c(Cl)cc(Cl)cc1Cc1cc(Cl)cc(Cl)c1O`, the Control current in data set [1] was determined as 245%. This compound also showed a pKa in data set [2] of 7.7.

For the compound `O=C(Nc1cc(Cl)cc(Cl)c1O)Nc1cc(Cl)cc(Cl)c1O`, the Control current in data set [1] was 196%. The pKa in data set [2] came out at 7.4.

Turning to `O=C(Nc1cccc(C(F)(F)F)c1)Nc1cc(Cl)ccc1O`, in data set [1], the Control current turned out to be 124%. Further, the pKa in data set [2] was determined as 9.3.

`Oc1c(Cl)cc(Cl)c(Cl)c1Cc1c(O)c(Cl)cc(Cl)c1Cl` [HEXACHLOROPHENE]: the Control current in data set [1] amounted to 237%. Also, the pKa in data set [2] came to 6.6.

Take `Oc1ccc(Br)cc1-c1cc(Br)ccc1O`: the Control current in data set [1] was found to be 97%. This compound showed a pKa in data set [2] of 8.6.

In the case of `Oc1c(Cl)cccc1Cc1cccc(Cl)c1O`, in data set [1], the Control current was 95.9%. Also, the pKa in data set [2] was found to be 8.2.

For the compound `Oc1ccc(Cl)cc1Cc1cc(Cl)ccc1O` [DICHLOROPHEN], in data set [1], the Control current is 74.3%. In data set [2], the pKa amounted to 9.3.

As for `O=c1[nH]c2cc(C(F)(F)F)ccc2n1-c1cc(Cl)ccc1O`, in data set [1], the Control current is 132%. Moreover, the pKa in data set [2] was 9.6.

One may read the pKa as the negative logarithm of the acid dissociation constant.

For the origin of these results see ChEMBL document CHEMBL1145769, “Novel openers of Ca2+-dependent large-conductance potassium channels: symmetrical pharmacophore and electrophysiological evaluation of bisphenols” (Bioorg Med Chem Lett, 2003).
